Assay results: patent publication US20250152584A1, “NLRP3 INFLAMMASOME INHIBITOR AND USES THEREOF” (TransThera Sciences (Nanjing), Inc., priority 2022, published 2025)

How the values were obtained:
[1] = Pharmacokinetic study in C57BL/6J mice; format: in vivo; conditions: mouse, plasma, C57BL/6J female mice
Description: Experimental Example 2: Pharmacokinetic Study of Compounds in C57BL/6J Mice
Compound 100, Compound 54, Compound 174, Compound 179, and Compound 253 were prepared into solutions with a mixed solvent formulated from 5% dimethyl sulfoxide, 20% (30% solutol) and 75% normal saline, respectively; the solution of each compound was administered to C57BL/6J female mice by gavage at a dose of 10 mg/kg; and the time points for blood collection were: 15 min, 30 min, 1 h, 2 h, 4 h, 6 h, 8 h and 24 h. The solution of the compound was administered to C57BL/6J female mice by intravenous bolus at a dose of 5 mg/kg, and the time points for blood collection were as follows: 5 min, 15 min, 30 min, 1 h, 2 h, 4 h, 6 h, 8 h, and 24 h.
Compound 1 was prepared into a solution with a mixed solvent formulated from 5% DME, 20% (30% solutol) and 75% normal saline; the solution of this compound was administered to C57BL/6J female mice by gavage at a dose of 10 mg/kg, and the time points for blood collection were: 15 min, 30 min, 1 h, 2 h, 4 h, 6 h, 8 h, and 24 h. The solution of the compound was administered to C57BL/6J female mice by intravenous bolus at a dose of 5 mg/kg, and the time points for blood collection were as follows: 5 min, 15 min, 30 min, 1 h, 2 h, 4 h, 6 h, 8 h, and 24 h.
Compound 195 was prepared into a solution with a mixed solvent formulated from 5% dimethyl sulfoxide, 20% PEG400 and 75% normal saline; the solution of this compound was administered to C57BL/6J female mice by gavage at a dose of 10 mg/kg; and the time points for blood collection were 15 min, 30 min, 1 h, 2 h, 4 h, 6 h, 8 h, and 24 b. The solution of the compound was administered to C57BL/6J female mice by intravenous bolus at a dose of 5 mg/kg, and the time points for blood collection were as follows: 5 min, 15 min, 30 min, 1 h, 2 b, 4 h, 6 h, 8 h, and 24 h.
(§1) Approximately 100 μL of blood was collected through the retroorbital venous plexus, and was then placed in an anticoagulant tube containing EDTA-K2. Blood samples were centrifuged at 12,000 rpm for 10 min at 4° C. to obtain plasma samples, and plasma was prepared within 30 min after blood collection. The plasma was stored in a −80° C. freezer before testing.
• 1. The samples were taken from the −80° C. freezer, thawed naturally at room temperature, and then vortexed for 5 min • 2. 10 μL of a plasma sample was precisely pipetted from different individuals into a 1.5 mL centrifuge tube. • 3. 300 μL of an internal standard working solution (the acetonitrile solution of tolbutamide) at a concentration of […] was added and mixed well. • 4. After vortexing for 5 min, the mixture was centrifuged at 12,000 rpm for 5 min. • 5. 50 μL of the supernatant was accurately pipetted into a 96-well plate preloaded with water at 150 μL/well. • 6. Vortexing was performed for 5 min for sufficient mixing, and LC-MS/MS analysis was then conducted.
The results of the concentrations of the compounds under test were output using Analyst 1.6.3 of AB. Parameters such as mean, standard deviation, coefficient of variation was calculated by Microsoft Excel (parameters directly output by Analyst 1.6.3 needed no calculation), and PK parameters were calculated by WinNonlin Phenoix 8.2 software NCA (Tmax as the median).

[2] = Pharmacokinetic study in beagles; format: in vivo; conditions: beagle, dog, plasma, male beagles; for Cmax: read-out: Cmax po (peak concentration); for Tmax: read-out: Tmax po (peak time of plasma concentration); for clearance: read-out: Cl—obs iv (clearance rate) (converted); for Vd: read-out: Vss iv (volume of distribution); for bioavailability: iv 1.0 mg/kg / po 1.0 mg/kg, read-out: F % (absolute bioavailability)
Description: Experimental Example 4: Pharmacokinetic Study of Compounds in Beagles
Compound 174 was prepared into a solution with a mixed solvent formulated from 5% dimethyl sulfoxide, 20% (30% solutol) and 75% normal saline; the solution of this compound was administered to male beagles by gavage at a dose of 1.0 mg/kg; and the time points for blood collection were: 15 min, 30 min, 1 b, 2 h, 4 h, 6 b, 8 h, 10 h and 24 h. The solution of the compound was administered to male beagles by intravenous bolus at a dose of 1.0 mg/kg, and the time points for blood collection were as follows: 5 min, 15 min, 30 min, 1 h, 2 h, 4 h, 6 h, 8 h, 10 h, and 24 h.
Compound 177 and Compound 195 were prepared into solutions with a mixed solvent formulated from 5% dimethyl sulfoxide, 20% (30% solutol) and 75% normal saline, respectively; the solutions of these compounds were administered to male beagles by gavage at a dose of 1.0 mg/kg; and the time points for blood collection were: 15 min, 30 min, 1 h, 2 h, 4 h, 6 h, 8 h, 10 h and 24 h. The solution of the compound was administered to male beagles by intravenous bolus at a dose of 1.0 mg/kg, and the time points for blood collection were as follows: 5 min, 15 min, 30 min, 1 h, 2 h, 4 h, 6 h, 8 h, 10 h, and 24 h.
as §1, with “400” for “100”, “medial cephalic vein of the forelimb” for “retroorbital venous plexus,”, “and” for “and was then”

[3] = po, gavage 1.0 mg/kg, read-out: AUClast po (area under the drug-time curve for 0-24 h)
[4] = po, gavage 1.0 mg/kg, read-out: tz1/2 po (terminal elimination half-life) (converted)
[5] = intravenous bolus 1.0 mg/kg, read-out: AUClast iv (area under the drug-time curve for 0-24 h)
[6] = intravenous bolus 1.0 mg/kg, read-out: tz1/2 iv (terminal elimination half-life) (converted)

Row | Tmax ([1]; po, gavage 10 mg/kg, median, read-out: Tmax po (peak time of plasma concentration)) [h] | AUC(0-t) ([1]; po, gavage 10 mg/kg, read-out: AUClast po (area under the drug-time curve for 0-24 h)) [ng·h/mL] | Cmax ([1]; po, gavage 10 mg/kg, read-out: Cmax po (peak concentration)) [ng/mL] | half-life ([1]; po, gavage 10 mg/kg, read-out: tz1/2 po (terminal elimination half-life) (converted)) [h] | AUC(0-t) ([1]; intravenous bolus 5 mg/kg, read-out: AUClast iv (area under the drug-time curve for 0-24 h)) [ng·h/mL] | clearance ([1]; intravenous bolus 5 mg/kg, read-out: Cl—obs iv (clearance rate) (converted)) [mL/min/kg] | Vd ([1]; intravenous bolus 5 mg/kg, read-out: Vss iv (volume of distribution)) [L/kg] | half-life ([1]; intravenous bolus 5 mg/kg, read-out: tz1/2 iv (terminal elimination half-life) (converted)) [h] | bioavailability ([1]; iv 5 mg/kg / po 10 mg/kg, read-out: F % (absolute bioavailability)) [%] | AUC(0-t) [2, 3] [ng·h/mL] | Cmax ([2]; po, gavage 1.0 mg/kg) [ng/mL] | Tmax ([2]; po, gavage 1.0 mg/kg) [h] | half-life [2, 4] [h] | AUC(0-t) [2, 5] [ng·h/mL] | clearance ([2]; intravenous bolus 1.0 mg/kg) [mL/min/kg] | Vd ([2]; intravenous bolus 1.0 mg/kg) [L/kg] | half-life [2, 6] [h] | bioavailability [2] [%] | SMILES
1 | 1 | 7860 | 1230 | 3.12 | 3580 | 23.2 | 5.14 | 3.89 | 110 | 1900 | 206 | 4 | 11 | 2320 | 6.58 | 3.74 | 8.16 | 90.7 | CC#Cc1ccc(-c2nnc(N[C@@H]3CCCN(C)C3)nc2C)c(O)c1 [Compound 195]
2 |  |  |  |  |  |  |  |  |  | 1920 | 293 | 1 | 5.9 | 1240 | 13 | 5.53 | 5.58 | 154 | C#Cc1ccc(-c2nnc(N[C@@H]3CCCN(C)C3)nc2C)c(O)c1 [Compound 177]
